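Assay format: 96-well plates, 48-hour exposure. GI50 = concentration required for 50% inhibition of growth. The concentration for full growth arrest is given as TGI.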
What was measured:
Assay in all cases: DTP human tumour cell line panel, 48 h
DU-145 prostate = tested on: DU-145 prostate
T-47D breast = tested on: T-47D breast
MOLT-4 leukemia = tested on: MOLT-4 leukemia
UACC-257 melanoma = tested on: UACC-257 melanoma
KM12 colon = tested on: KM12 colon
HL-60(TB) leukemia = tested on: HL-60(TB) leukemia
SK-MEL-28 melanoma = tested on: SK-MEL-28 melanoma
A549 NSCLC = tested on: A549 NSCLC
PC-3 prostate = tested on: PC-3 prostate
COLO 205 colon = tested on: COLO 205 colon
NCI-H226 lung = tested on: NCI-H226 lung
A498 renal = tested on: A498 renal
NCI-H522 lung = tested on: NCI-H522 lung
SNB-19 CNS = tested on: SNB-19 CNS
NCI-H23 lung = tested on: NCI-H23 lung
LOX IMVI melanoma = tested on: LOX IMVI melanoma
HOP-62 NSCLC = tested on: HOP-62 NSCLC
K-562 leukemia = tested on: K-562 leukemia
SNB-75 CNS = tested on: SNB-75 CNS
MDA-MB-435 = tested on: MDA-MB-435
CCRF-CEM leukemia = tested on: CCRF-CEM leukemia
HCT-116 colon = tested on: HCT-116 colon
SF-539 CNS = tested on: SF-539 CNS
OVCAR-4 ovarian = tested on: OVCAR-4 ovarian
OVCAR-3 ovarian = tested on: OVCAR-3 ovarian
SN12C renal = tested on: SN12C renal
RPMI-8226 leukemia = tested on: RPMI-8226 leukemia
SK-MEL-2 melanoma = tested on: SK-MEL-2 melanoma
SF-295 CNS = tested on: SF-295 CNS
BT-549 breast = tested on: BT-549 breast
SK-OV-3 ovarian = tested on: SK-OV-3 ovarian
ACHN renal = tested on: ACHN renal
UO-31 renal = tested on: UO-31 renal
MALME-3M melanoma = tested on: MALME-3M melanoma
NCI-H460 lung = tested on: NCI-H460 lung
MCF7 breast = tested on: MCF7 breast
786-0 renal = tested on: 786-0 renal
TK-10 renal = tested on: TK-10 renal
HS 578T breast = tested on: HS 578T breast
OVCAR-5 ovarian = tested on: OVCAR-5 ovarian
MDA-MB-231 breast = tested on: MDA-MB-231 breast
HOP-92 NSCLC = tested on: HOP-92 NSCLC
SR leukemia = tested on: SR leukemia
UACC-62 melanoma = tested on: UACC-62 melanoma
HT29 colon = tested on: HT29 colon
IGROV1 ovarian = tested on: IGROV1 ovarian
HCC-2998 colon = tested on: HCC-2998 colon
SW-620 colon = tested on: SW-620 colon
HCT-15 colon = tested on: HCT-15 colon
SF-268 CNS = tested on: SF-268 CNS
RXF 393 renal = tested on: RXF 393 renal
EKVX NSCLC = tested on: EKVX NSCLC
M14 melanoma = tested on: M14 melanoma
OVCAR-8 ovarian = tested on: OVCAR-8 ovarian
NCI/ADR-RES ovarian = tested on: NCI/ADR-RES ovarian
U251 CNS = tested on: U251 CNS
SK-MEL-5 melanoma = tested on: SK-MEL-5 melanoma
CAKI-1 renal = tested on: CAKI-1 renal

O=C1c2ccccc2-c2c1c1ccccc1c(=O)n2CCCNCCO
GI50 (DU-145 prostate): 189 nM | TGI (DU-145 prostate): 4720 nM | GI50 (T-47D breast): 1050 nM | TGI (T-47D breast): 7580 nM | GI50 (MOLT-4 leukemia): 87.9 nM | TGI (MOLT-4 leukemia): 522 nM | GI50 (UACC-257 melanoma): 1250 nM | TGI (UACC-257 melanoma): 4390 nM | GI50 (KM12 colon): 485 nM | TGI (KM12 colon): 4000 nM | GI50 (HL-60(TB) leukemia): 175 nM | TGI (HL-60(TB) leukemia): 880 nM | GI50 (SK-MEL-28 melanoma): 1240 nM | TGI (SK-MEL-28 melanoma): 2950 nM | GI50 (A549 NSCLC): 267 nM | TGI (A549 NSCLC): 12800 nM | GI50 (PC-3 prostate): 752 nM | TGI (PC-3 prostate): 4470 nM | GI50 (COLO 205 colon): 630 nM | TGI (COLO 205 colon): 3750 nM | GI50 (NCI-H226 lung): 1450 nM | TGI (NCI-H226 lung): 5380 nM | TGI (A498 renal): 1280 nM | GI50 (NCI-H522 lung): 689 nM | TGI (NCI-H522 lung): 4330 nM | GI50 (SNB-19 CNS): 813 nM | TGI (SNB-19 CNS): 6730 nM | GI50 (NCI-H23 lung): 818 nM | TGI (NCI-H23 lung): 4970 nM | GI50 (LOX IMVI melanoma): 206 nM | TGI (LOX IMVI melanoma): 2790 nM | GI50 (HOP-62 NSCLC): 317 nM | TGI (HOP-62 NSCLC): 2610 nM | GI50 (K-562 leukemia): 284 nM | TGI (K-562 leukemia): 7950 nM | GI50 (SNB-75 CNS): 1430 nM | TGI (SNB-75 CNS): 5680 nM | GI50 (MDA-MB-435): 895 nM | TGI (MDA-MB-435): 4920 nM | GI50 (CCRF-CEM leukemia): 165 nM | TGI (CCRF-CEM leukemia): 1110 nM | GI50 (HCT-116 colon): 298 nM | TGI (HCT-116 colon): 3530 nM | GI50 (SF-539 CNS): 578 nM | TGI (SF-539 CNS): 2960 nM | GI50 (OVCAR-4 ovarian): 1240 nM | TGI (OVCAR-4 ovarian): 5950 nM | GI50 (OVCAR-3 ovarian): 1070 nM | TGI (OVCAR-3 ovarian): 6130 nM | GI50 (SN12C renal): 454 nM | TGI (SN12C renal): 6250 nM | GI50 (RPMI-8226 leukemia): 241 nM | TGI (RPMI-8226 leukemia): 1760 nM | GI50 (SK-MEL-2 melanoma): 2840 nM | TGI (SK-MEL-2 melanoma): 6150 nM | GI50 (SF-295 CNS): 568 nM | TGI (SF-295 CNS): 4020 nM | GI50 (BT-549 breast): 1650 nM | TGI (BT-549 breast): 5900 nM | GI50 (SK-OV-3 ovarian): 2100 nM | TGI (SK-OV-3 ovarian): 14400 nM | GI50 (ACHN renal): 195 nM | TGI (ACHN renal): 906 nM | GI50 (UO-31 renal): 303 nM | TGI (UO-31 renal): 2060 nM | GI50 (MALME-3M melanoma): 511 nM | TGI (MALME-3M melanoma): 1930 nM | GI50 (NCI-H460 lung): 111 nM | TGI (NCI-H460 lung): 1560 nM | GI50 (MCF7 breast): 102 nM | TGI (MCF7 breast): 5030 nM | GI50 (786-0 renal): 234 nM | TGI (786-0 renal): 10900 nM | GI50 (TK-10 renal): 1330 nM | TGI (TK-10 renal): 7440 nM | GI50 (HS 578T breast): 589 nM | TGI (HS 578T breast): 5040 nM | GI50 (OVCAR-5 ovarian): 1050 nM | TGI (OVCAR-5 ovarian): 7270 nM | GI50 (MDA-MB-231 breast): 1500 nM | TGI (MDA-MB-231 breast): 6550 nM | GI50 (HOP-92 NSCLC): 357 nM | TGI (HOP-92 NSCLC): 2610 nM | GI50 (SR leukemia): 86 nM | TGI (SR leukemia): 618 nM | GI50 (UACC-62 melanoma): 304 nM | TGI (UACC-62 melanoma): 1740 nM | GI50 (HT29 colon): 330 nM | TGI (HT29 colon): 6680 nM | GI50 (IGROV1 ovarian): 501 nM | TGI (IGROV1 ovarian): 3760 nM | GI50 (HCC-2998 colon): 1280 nM | TGI (HCC-2998 colon): 5740 nM | GI50 (SW-620 colon): 145 nM | TGI (SW-620 colon): 5260 nM | GI50 (HCT-15 colon): 554 nM | TGI (HCT-15 colon): 6130 nM | GI50 (SF-268 CNS): 796 nM | TGI (SF-268 CNS): 8850 nM | GI50 (RXF 393 renal): 585 nM | TGI (RXF 393 renal): 4030 nM | GI50 (EKVX NSCLC): 2380 nM | TGI (EKVX NSCLC): 8350 nM | GI50 (M14 melanoma): 1210 nM | TGI (M14 melanoma): 3000 nM | GI50 (OVCAR-8 ovarian): 239 nM | TGI (OVCAR-8 ovarian): 11600 nM | GI50 (NCI/ADR-RES ovarian): 1670 nM | TGI (NCI/ADR-RES ovarian): 8700 nM | GI50 (U251 CNS): 302 nM | TGI (U251 CNS): 5610 nM | GI50 (SK-MEL-5 melanoma): 198 nM | TGI (SK-MEL-5 melanoma): 877 nM | GI50 (CAKI-1 renal): 438 nM | TGI (CAKI-1 renal): 3340 nM
